Experimental findings from ChEMBL document CHEMBL5724914, “Linking interpersonal differences in gut microbiota composition and drug biotransformation activity” (2024) are described below.

The structures appear in SMILES notation.

Data set [1] in a line: The drug is tested on Z-020 corresponding to rabbit gut metagenome with ENA study accession number: PRJEB37062 and ENA sample accession number: ERS12561819 for biotransformation under anaerobic condition. The drug concentrations were measured over 9 timepoints collected between 0 and 24 hours of incubation by liquid-chromatography-coupled mass spectrometry (LC–MS). Conditions: 2 µM.

Data set [2] can be described thus: The drug is tested on Z-002 corresponding to rabbit gut metagenome with ENA study accession number: PRJEB37062 and ENA sample accession number: ERS12561802 for biotransformation under anaerobic condition. The drug concentrations were measured over 9 timepoints collected between 0 and 24 hours of incubation by liquid-chromatography-coupled mass spectrometry (LC–MS). Particulars: 2 µM.

The conditions of data set [3]: human gut metagenome, 24 h, 2 µM.
The conditions of data set [4]: human gut metagenome, 24 h, 2 µM. This is another data set of the same source.
For data set [5] the following is noted: human gut metagenome, 24 h, 2 µM. The source holds these as a separate data set.
A short description of data set [6]: The drug is tested on WLS-098 corresponding to human gut metagenome with ENA study accession number: PRJEB37062 and ENA sample accession number: ERS12561754 for biotransformation under anaerobic condition. The drug concentrations were measured over 9 timepoints collected between 0 and 24 hours of incubation by liquid-chromatography-coupled mass spectrometry (LC–MS). Conditions: 2 µM.

For data set [7] the following is noted: human gut metagenome, 24 h, 2 µM. The source holds these as a separate data set.
The nature of data set [8]: The drug is tested on Z-007 corresponding to rat gut metagenome with ENA study accession number: PRJEB37062 and ENA sample accession number: ERS12561807 for biotransformation under anaerobic condition. The drug concentrations were measured over 9 timepoints collected between 0 and 24 hours of incubation by liquid-chromatography-coupled mass spectrometry (LC–MS). Particulars: 2 µM.

For data set [9] the following is noted: human gut metagenome, 24 h, 2 µM. This is another data set of the same source.
The conditions of data set [10]: human gut metagenome, 24 h, 2 µM. This is another data set of the same source.
Data set [11] in a line: The drug is tested on WLS-082 corresponding to human gut metagenome with ENA study accession number: PRJEB37062 and ENA sample accession number: ERS12561751 for biotransformation under anaerobic condition. The drug concentrations were measured over 9 timepoints collected between 0 and 24 hours of incubation by liquid-chromatography-coupled mass spectrometry (LC–MS). Conditions: 2 µM.

The conditions of data set [12]: human gut metagenome, 24 h, 2 µM. This is another data set of the same source.
The conditions of data set [13]: human gut metagenome, 24 h, 2 µM. The source holds these as a separate data set.
For data set [14] the following is noted: human gut metagenome, 24 h, 2 µM. This is another data set of the same source.
Data set [15] in a line: The drug is tested on Z-018 corresponding to pig gut metagenome with ENA study accession number: PRJEB37062 and ENA sample accession number: ERS12561817 for biotransformation under anaerobic condition. The drug concentrations were measured over 9 timepoints collected between 0 and 24 hours of incubation by liquid-chromatography-coupled mass spectrometry (LC–MS). Conditions: 2 µM.

The conditions of data set [16]: human gut metagenome, 24 h, 2 µM. The source holds these as a separate data set.
Data set [17] in a line: The drug is tested on WLS-052 corresponding to human gut metagenome with ENA study accession number: PRJEB37062 and ENA sample accession number: ERS12561747 for biotransformation under anaerobic condition. The drug concentrations were measured over 9 timepoints collected between 0 and 24 hours of incubation by liquid-chromatography-coupled mass spectrometry (LC–MS). Conditions: 2 µM.

Data set [18] can be described thus: The drug is tested on WLS-006 corresponding to human gut metagenome with ENA study accession number: PRJEB37062 and ENA sample accession number: ERS12561741 for biotransformation under anaerobic condition. The drug concentrations were measured over 9 timepoints collected between 0 and 24 hours of incubation by liquid-chromatography-coupled mass spectrometry (LC–MS). Conditions: 2 µM.

Data set [19] can be described thus: The drug is tested on WLS-170 corresponding to human gut metagenome with ENA study accession number: PRJEB37062 and ENA sample accession number: ERS12561762 for biotransformation under anaerobic condition. The drug concentrations were measured over 9 timepoints collected between 0 and 24 hours of incubation by liquid-chromatography-coupled mass spectrometry (LC–MS). Particulars: 2 µM.

Data set [20] can be described thus: The drug is tested on Z-023 corresponding to metagenome with ENA study accession number: PRJEB37062 and ENA sample accession number: ERS12561822 for biotransformation under anaerobic condition. The drug concentrations were measured over 9 timepoints collected between 0 and 24 hours of incubation by liquid-chromatography-coupled mass spectrometry (LC–MS). Particulars: 2 µM.
Also: call rule not given here.

Take `CCC1(c2ccc(N)cc2)CCC(=O)NC1=O` (stereo not drawn) [AMINOGLUTETHIMIDE]: the “Bacterial Biotransformation” value in [1], in data set [2], in data set [3], in [4], in [5] and in data set [6] was “Compound NOT metabolized” each time. Moreover, the “Bacterial Biotransformation” value in data set [7], in data set [8], in [9], in data set [10], in data set [11] and in data set [12] was “Compound NOT metabolized” throughout. In addition, the “Bacterial Biotransformation” value in data set [13] is recorded as “Compound NOT metabolized”; in data set [14], “Compound NOT metabolized”; in [15], “Compound metabolized”; in data set [16] it was “Compound NOT metabolized”; in data set [17], “Compound NOT metabolized”; in [18], “Compound NOT metabolized”. Also, in data set [19], the “Bacterial Biotransformation” value was “Compound NOT metabolized”.

With `C#C[C@]1(O)CC[C@H]2[C@@H]3CCC4=Cc5oncc5C[C@]4(C)[C@H]3CC[C@@]21C` [DANAZOL], the “Bacterial Biotransformation” value in [1] was “Compound NOT metabolized”; in [20], “Compound metabolized”; in data set [11], “Compound metabolized”; in data set [12], “Compound metabolized”; in [13], “Compound metabolized”; in data set [16], “Compound metabolized”. Moreover, the “Bacterial Biotransformation” value in data set [17] and in data set [18] was “Compound metabolized” in each case.

`CCN(CC)C(=O)/C(C#N)=C/c1cc(O)c(O)c([N+](=O)[O-])c1` [ENTACAPONE]: the “Bacterial Biotransformation” value in [1], in [2], in data set [5], in [8], in data set [20] and in [13] was “Compound metabolized” throughout. For the same compound, the “Bacterial Biotransformation” value in data set [15] and in data set [16] was “Compound metabolized” each time.

Regarding `COc1c2occc2cc2ccc(=O)oc12` [METHOXSALEN], the “Bacterial Biotransformation” value in [1] is “Compound metabolized”; in data set [2] it was “Compound metabolized”; in data set [4], “Compound metabolized”; in data set [6], “Compound metabolized”; in data set [7], “Compound metabolized”; in [8] it was “Compound NOT metabolized”. Moreover, the “Bacterial Biotransformation” value in data set [20], in data set [9], in data set [10], in data set [12], in data set [13] and in [14] was “Compound metabolized” each time. Also, the “Bacterial Biotransformation” value in [15], in data set [16], in data set [17], in data set [18] and in [19] was “Compound metabolized” each time.

In the case of `Cc1nc2n(c(=O)c1CCN1CCC(c3noc4cc(F)ccc34)CC1)CCCC2O` (stereo not drawn) [PALIPERIDONE], the “Bacterial Biotransformation” value in data set [1] is recorded as “Compound NOT metabolized”; in data set [3], “Compound metabolized”; in data set [4], “Compound metabolized”; in [5], “Compound metabolized”; in data set [6], “Compound metabolized”; in data set [7], “Compound metabolized”. Also, the “Bacterial Biotransformation” value in data set [20] is on record as “Compound metabolized”; in data set [9] it was “Compound metabolized”; in data set [10] it was “Compound metabolized”; in [12], “Compound metabolized”; in data set [13], “Compound NOT metabolized”; in data set [14] it was “Compound metabolized”. Further, the “Bacterial Biotransformation” value in data set [15] is “Compound NOT metabolized”; in data set [16], “Compound metabolized”; in data set [17] it was “Compound metabolized”; in [18], “Compound metabolized”; in data set [19], “Compound NOT metabolized”.

Turning to `Nc1ccc(/N=N/c2ccccc2)c(N)n1` [PHENAZOPYRIDINE], the “Bacterial Biotransformation” value in [2], in data set [3], in data set [4], in data set [5], in data set [6] and in [7] was “Compound metabolized” in each case. In addition, the “Bacterial Biotransformation” value in data set [8], in [20], in data set [9], in [10], in [11] and in [12] was “Compound metabolized” each time. In addition, the “Bacterial Biotransformation” value in data set [13], in [14], in data set [15], in data set [16], in data set [17] and in [18] was “Compound metabolized” in each case. Moreover, the “Bacterial Biotransformation” value in [19] is “Compound metabolized”.

Consider `CN(C)CCc1c[nH]c2ccc(Cn3cncn3)cc12.O=C(O)c1ccccc1` [RIZATRIPTAN BENZOATE], for which the “Bacterial Biotransformation” value in [1], in [2], in data set [3], in data set [4], in [5] and in [6] was “Compound NOT metabolized” in each case. In addition, the “Bacterial Biotransformation” value in [7], in data set [8], in [20], in data set [9], in data set [10] and in [12] was “Compound NOT metabolized” in each case. The “Bacterial Biotransformation” value in [13], in data set [15], in data set [16], in data set [17] and in data set [18] was “Compound NOT metabolized” in each case.

Turning to `Cc1ccc(/C(=C\CN2CCCC2)c2ccccn2)cc1` [TRIPROLIDINE], the “Bacterial Biotransformation” value in data set [2] is “Compound NOT metabolized”; in data set [3], “Compound metabolized”; in data set [4], “Compound NOT metabolized”; in data set [5], “Compound NOT metabolized”; in [6], “Compound NOT metabolized”; in data set [7], “Compound metabolized”. The “Bacterial Biotransformation” value in data set [8], in [20], in data set [9], in data set [10], in data set [11] and in data set [12] was “Compound NOT metabolized” in each case. In addition, the “Bacterial Biotransformation” value is listed as “Compound NOT metabolized” in data set [13]; “Compound NOT metabolized” in data set [14]; “Compound NOT metabolized” in [16]; “Compound NOT metabolized” in data set [17]; “Compound metabolized” in data set [18]; “Compound metabolized” in data set [19].
